Laboratory results from PubChem BioAssay (NCI).
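Values below derive from 48-hour exposures of cells grown in 96-well plates, with endpoints linearly interpolated between the two concentrations bracketing the appropriate inhibition level. TGI: total growth inhibition.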

Columns and labels:
Assay in all cases: DTP human tumour cell line panel, 48 h
A549 NSCLC = system: A549 NSCLC
HT29 colon = system: HT29 colon
SK-MEL-5 melanoma = system: SK-MEL-5 melanoma
SF-295 CNS = system: SF-295 CNS
SK-OV-3 ovarian = system: SK-OV-3 ovarian
HCC-2998 colon = system: HCC-2998 colon
SK-MEL-28 melanoma = system: SK-MEL-28 melanoma
IGROV1 ovarian = system: IGROV1 ovarian
NCI-H226 lung = system: NCI-H226 lung
DU-145 prostate = system: DU-145 prostate
U251 CNS = system: U251 CNS
SNB-75 CNS = system: SNB-75 CNS
SW-620 colon = system: SW-620 colon
BT-549 breast = system: BT-549 breast
RPMI-8226 leukemia = system: RPMI-8226 leukemia
MALME-3M melanoma = system: MALME-3M melanoma
UO-31 renal = system: UO-31 renal
NCI-H460 lung = system: NCI-H460 lung
OVCAR-5 ovarian = system: OVCAR-5 ovarian
OVCAR-3 ovarian = system: OVCAR-3 ovarian
MCF7 breast = system: MCF7 breast
SF-268 CNS = system: SF-268 CNS
ACHN renal = system: ACHN renal
SF-539 CNS = system: SF-539 CNS
COLO 205 colon = system: COLO 205 colon
MDA-N = system: MDA-N
MDA-MB-231 breast = system: MDA-MB-231 breast
LOX IMVI melanoma = system: LOX IMVI melanoma
OVCAR-8 ovarian = system: OVCAR-8 ovarian
NCI/ADR-RES ovarian = system: NCI/ADR-RES ovarian
HS 578T breast = system: HS 578T breast
CCRF-CEM leukemia = system: CCRF-CEM leukemia
A498 renal = system: A498 renal
786-0 renal = system: 786-0 renal
K-562 leukemia = system: K-562 leukemia
UACC-257 melanoma = system: UACC-257 melanoma
EKVX NSCLC = system: EKVX NSCLC
NCI-H23 lung = system: NCI-H23 lung
SN12C renal = system: SN12C renal
HOP-62 NSCLC = system: HOP-62 NSCLC
HL-60(TB) leukemia = system: HL-60(TB) leukemia
SNB-19 CNS = system: SNB-19 CNS
HCT-15 colon = system: HCT-15 colon
PC-3 prostate = system: PC-3 prostate
NCI-H522 lung = system: NCI-H522 lung
MDA-MB-435 = system: MDA-MB-435
KM12 colon = system: KM12 colon
HCT-116 colon = system: HCT-116 colon
MOLT-4 leukemia = system: MOLT-4 leukemia
TK-10 renal = system: TK-10 renal
SK-MEL-2 melanoma = system: SK-MEL-2 melanoma
UACC-62 melanoma = system: UACC-62 melanoma
M14 melanoma = system: M14 melanoma
OVCAR-4 ovarian = system: OVCAR-4 ovarian
HOP-92 NSCLC = system: HOP-92 NSCLC
RXF 393 renal = system: RXF 393 renal
CAKI-1 renal = system: CAKI-1 renal

Structure (SMILES): Cc1ccc(C)n1-c1ccccc1C1C=CN(C(=O)OC(C)(C)C)C=C1
- TGI (A549 NSCLC): > 100 µM
- TGI (HT29 colon): 27.7 µM
- TGI (SK-MEL-5 melanoma): > 100 µM
- TGI (SF-295 CNS): > 100 µM
- TGI (SK-OV-3 ovarian): > 100 µM
- TGI (HCC-2998 colon): 34 µM
- TGI (SK-MEL-28 melanoma): > 100 µM
- TGI (IGROV1 ovarian): > 100 µM
- TGI (NCI-H226 lung): 31.5 µM
- TGI (DU-145 prostate): > 100 µM
- TGI (U251 CNS): 77.8 µM
- TGI (SNB-75 CNS): 56.6 µM
- TGI (SW-620 colon): 41.7 µM
- TGI (BT-549 breast): > 100 µM
- TGI (RPMI-8226 leukemia): > 100 µM
- TGI (MALME-3M melanoma): 47.8 µM
- TGI (UO-31 renal): > 100 µM
- TGI (NCI-H460 lung): 96.9 µM
- TGI (OVCAR-5 ovarian): > 100 µM
- TGI (OVCAR-3 ovarian): 46.8 µM
- TGI (MCF7 breast): 32.6 µM
- TGI (SF-268 CNS): > 100 µM
- TGI (ACHN renal): > 100 µM
- TGI (SF-539 CNS): > 100 µM
- TGI (COLO 205 colon): 32.4 µM
- TGI (MDA-N): > 100 µM
- TGI (MDA-MB-231 breast): 53.3 µM
- TGI (LOX IMVI melanoma): 37.4 µM
- TGI (OVCAR-8 ovarian): > 100 µM
- TGI (NCI/ADR-RES ovarian): > 100 µM
- TGI (HS 578T breast): > 100 µM
- TGI (CCRF-CEM leukemia): > 100 µM
- TGI (A498 renal): > 100 µM
- TGI (786-0 renal): > 100 µM
- TGI (K-562 leukemia): > 100 µM
- TGI (UACC-257 melanoma): > 100 µM
- TGI (EKVX NSCLC): 60.8 µM
- TGI (NCI-H23 lung): > 100 µM
- TGI (SN12C renal): > 100 µM
- TGI (HOP-62 NSCLC): > 100 µM
- TGI (HL-60(TB) leukemia): > 100 µM
- TGI (SNB-19 CNS): > 100 µM
- TGI (HCT-15 colon): 45.7 µM
- TGI (PC-3 prostate): > 100 µM
- TGI (NCI-H522 lung): 36.2 µM
- TGI (MDA-MB-435): > 100 µM
- TGI (KM12 colon): 31.2 µM
- TGI (HCT-116 colon): 45.1 µM
- TGI (MOLT-4 leukemia): 68.7 µM
- TGI (TK-10 renal): > 100 µM
- TGI (SK-MEL-2 melanoma): 35.6 µM
- TGI (UACC-62 melanoma): 77.9 µM
- TGI (M14 melanoma): > 100 µM
- TGI (OVCAR-4 ovarian): > 100 µM
- TGI (HOP-92 NSCLC): > 100 µM
- TGI (RXF 393 renal): 60.4 µM
- TGI (CAKI-1 renal): > 100 µM
